# Measurements: patent US20060241108A1, “Substituted phenoxazines and acridones as inhibitors of AKT” (St. Jude Children's Research Hospital, priority 2005, published 2006)
# Columns and labels:
# Type in all cases: cell-based, human
# [1] = test system: AKT, mTOR and rpS6; assay: IGF-1-induced phosphorylation of AKT, mTOR and rpS6 in serum-starved Rh18 cells
# Description: (§1) Cellular screening for inhibitors. Rh1, Rh18 and Rh30 cells can each be seeded at a density of 4×10^6/10-cm plate in serum-free medium for overnight attachment. The cells can then be exposed to 0.1% DMSO or to a test compound (for example, a phenoxazine or acridone compound) for one hour, then stimulated with Insulin-like growth factor-I (IGF-I) (10 ng/ml) for 10 minutes.
# (§2) Western blot analysis. Cells are rapidly washed with ice-cold phosphate-buffered saline (PBS), placed on ice, and lysed in mammalian protein extraction reagent (M-PER; available from Pierce, Rockford, Ill.) containing one Complete™ mini protease inhibitor tablet (available from Boehringer Mannheim, Mannheim, Germany), 1 mM phenylmethylsulfonyl fluoride, 1 mM Na3VO4 and 1 mM NaF. Cellular debris is pelleted by centrifugation at 17,500×g for 10 minutes at 4° C. The protein concentration of the supernatants is measured by the bicinchoninic acid assay (e.g., using the BCA™ Protein Assay Kit, Pierce, Rockford, Ill., catalog number 23225 or 23227) using bovine serum albumin as the standard. […]
# [2] = test system: AKT; assay: Inhibition of IGF-I stimulated AKT phosphorylation (Ser473) in Rh1 cells, Western blot; conditions: 5 μM, 1 hour, serum starved Rh1 cells, IGF-I 10 ng/ml 10 minutes; average of two experiments
# Description: Cell lines and growth conditions. The human cell lines Rh1, Rh18, and Rh30 (ATCC Deposit # CRL 2061) have been described, e.g., by Hazelton et al. Cancer Res 1987;47:4501-4507 and Hosoi et al. Cancer Res. 1999;59:886-894. Rh1, Rh18 and Rh30 cells can each be grown in antibiotic free RPMI-1640 medium (available from BioWhittaker, Walkersville, Md.), supplemented with 10% fetal bovine serum (available from HyClone Laboratories, Logan, Utah) and 2 mM L-glutamine (available from BioWhittaker, Walkersville, Md.) at 37° C. in an atmosphere of 5% CO2. For serum free experiments, cells can be cultured in modified N2E (MN2E) medium (DMEM/F-12, 1:1 mixture) (Sigma, St. Louis, Mo.) supplemented with 1 μg/ml human holo transferrin, 30 nM sodium selenite, 20 nM progesterone, 100 μM putrescine, 30 nM vitamin E phosphate, and 50 μM ethanolamine. Cells in MN2E medium containing 5 μg/ml bovine fibronectin (available from Sigma, St. Louis, Mo.) are preferably plated, and allowed to attach overnight at 37° C. in a humidified, 5% CO2 atmosphere.
# as §1
# Western blot analysis. Cells are rapidly washed with ice-cold phosphate-buffered saline (PBS), placed on ice, and lysed in mammalian protein extraction reagent (M-PER; available from Pierce, Rockford, Ill.) containing one Complete™ mini protease inhibitor tablet (available from Boehringer Mannheim, Mannheim, Germany), 1 mM phenylmethylsulfonyl fluoride, 1 mM Na3VO4 and 1 mM NaF. Cellular debris is pelleted by centrifugation at 17,500×g for 10 minutes at 4° C. The protein concentration of the supernatants is measured by the bicinchoninic acid assay (e.g., using the BCA™ Protein Assay Kit, Pierce, Rockford, Ill., catalog number 23225 or 23227) using bovine serum albumin as the standard.
# For the analysis of AKT, ERK-1/2, mTOR, p70S6 kinase, ribosomal protein S6 (rpS6 or S6), and glycogen synthase kinase 3 (GSK-3), equivalent amounts of protein can be separated on a 12% SDS-polyacrylamide gel (available from BioRad, Hercules, Calif.) by electrophoresis and subsequently transferred to a nitrocellulose membrane (also available from BioRad). After a 1 hour incubation in 1×TBS containing 0.05% Tween 20 and 5% blocking reagent (skim milk) (available from Upstate Biotechnology, Lake Placid, N.Y.) at room temperature, the wet nitrocellulose membranes are incubated with appropriate antibodies (available from Cell Signaling Technology, Beverly, Mass.): rabbit polyclonal antiserum specific for the phosphorylated Ser473 or Thr308 of AKT (dilution 1:1000); rabbit polyclonal antiserum specific for phosphorylated Thr202/Tyr204 of ERK-1/2 (dilution 1:1000); rabbit polyclonal antiserum specific for phosphorylated Ser2448 or Ser2481 of mTOR (dilution 1:1000); rabbit polyclonal antiserum specific for phosphorylated Thr389 of p70S6 kinase (dilution 1:4000); rabbit polyclonal antiserum specific for phosphorylated Ser235/236 of rpS6 (dilution 1:1000); or rabbit polyclonal antiserum specific for phosphorylated Ser21/9 of GSK-3α/β (dilution 1:1000). Horseradish peroxidase-conjugated goat anti-rabbit IgG antibody (dilution 1:10,000) can be used as the secondary antibody. Immunoreactive protein can be visualized using Renaissance chemiluminescence reagent (available from Life Science Products Inc., Boston, Mass.).
# For these assays, Rh1 cells are seeded in serum-free medium for overnight attachment. The serum starved Rh1 cells are then exposed to 1-5 μM of a compound in Table I for 1 hour before stimulating with IGF-I (10 ng/ml) for 10 minutes. […]
# [3] = test system: Rh1, Rh18 and/or Rh30 cells; assay: Determination of apoptosis, cell line not specified for the result
# Excerpt: Determination of apoptosis.
# Similar experiments can be performed using compounds that are relatively poor inhibitors of AKT in vitro but, preferably, are chemically similar to the phenoxazine or other compounds tested that are effective inhibitors of AKT. For example, the apoptosis of cells in response to the phenoxazine compound 12B or 20B, which are relatively poor inhibitors of AKT in vitro, can be compared to apoptosis of cells in response to the chemically similar compounds 10B and/or 15B, which are effective AKT inhibitors. In this way, a skilled practitioner can evaluate whether apoptosis observed in response to an effective AKT inhibitor (e.g., apoptosis observed in response to compound 10B or 15B) is due to a general toxic effect rather than AKT inhibition.
# [4] = test system: AKT, mTOR and rpS6; assay: IGF-1-induced phosphorylation of AKT, mTOR and rpS6 in serum-starved Rh30 cells
# Description: as §1, §2
substance,measurement,setting,value
10-(N-pyrrolidinoacetyl)-2-chlorophenoxazine [Compound 20B],"block of IGF-1-induced phosphorylation of AKT, mTOR and rpS6",[1],possible exception
same,Inhibition (phosphorylation of AKT at Ser 473),[2],−−− (−−− <25% inhibition)
same,induction of apoptosis,[3],neither the compound 12B or 20B
same,"block of IGF-1-induced phosphorylation of AKT, mTOR and rpS6",[4],possible exception
